According to DBAASP:
≈ marks a conversion by molar mass, not a printed value.

Tests used:
Experiment in all cases: ≥ marks a high value that may be exact or a test limit, other limits are often not marked, values filed in µg/mL are converted to µM
[1] = system: Franconibacter helveticus DSM 18396
[2] = system: Bacillus subtilis DSM 347
[3] = system: Kocuria rhizophila DSM 348
[4] = system: Escherichia coli DH5alpha
Staphylococcus aureus = system: Staphylococcus aureus
Acinetobacter baumannii = system: Acinetobacter baumannii
Pseudomonas aeruginosa 1 = system: Pseudomonas aeruginosa 1
Enterococcus faecalis = system: Enterococcus faecalis
Pseudomonas aeruginosa = system: Pseudomonas aeruginosa
[5] = system: Listeria fleischmannii DSM 24998
[6] = system: Listeria monocytogenes DSM 20600
Listeria grayi DSM 20601 = system: Listeria grayi DSM 20601
Escherichia coli D31 = system: Escherichia coli D31
[7] = system: Micrococcus luteus DSM 20030
[8] = system: Cryptococcus neoformans ATCC 32264
[9] = system: Staphylococcus aureus ATCC 43300
Salmonella sp. = system: Salmonella sp.
Yersinia enterocolitica = system: Yersinia enterocolitica
[10] = system: Salmonella enterica subsp. enterica serovar Enteritidis
Escherichia coli = system: Escherichia coli
[11] = system: Escherichia coli ATCC 25922
[12] = system: Candida albicans ATCC 10231
[13] = system: Pseudomonas aeruginosa ATCC 27853
[14] = system: Staphylococcus aureus ATCC 29213

`CC[C@H](C)[C@H](NC(=O)CN)C(=O)NCC(=O)N[C@@H](CCCCN)C(=O)N[C@@H](Cc1ccccc1)C(=O)N[C@@H](C)C(=O)N[C@@H](Cc1cnc[nH]1)C(=O)N[C@@H](CO)C(=O)N[C@@H](C)C(=O)N[C@@H](CCCCN)C(=O)N[C@@H](CCCCN)C(=O)N[C@@H](Cc1ccccc1)C(=O)NCC(=O)N[C@@H](CCCCN)C(=O)N[C@@H](C)C(=O)N[C@@H](Cc1ccccc1)C(=O)N[C@H](C(=O)NCC(=O)N[C@@H](CCC(=O)O)C(=O)N[C@H](C(=O)N[C@@H](CCSC)C(=O)N[C@@H](CC(N)=O)C(=O)N[C@@H](CO)C(=O)O)[C@@H](C)CC)C(C)C` [GIGKFAHSAKKFGKAFVGEIMNS] was tested, and the MIC [1] was ≥ 128 µM, the MIC [2] was ≥ 32 µM and the MIC [3] was ≥ 256 µM. The MIC [4] was ≥ 128 µM.
`CC(C)C[C@H](NC(=O)[C@H](CC(C)C)NC(=O)[C@H](CCCCN)NC(=O)[C@H](CCCCN)NC(=O)[C@H](CC(C)C)NC(=O)[C@H](CCCCN)NC(=O)[C@H](CCCCN)NC(=O)[C@H](CC(C)C)NC(=O)[C@H](CC(C)C)NC(=O)[C@H](CCCCN)NC(=O)[C@H](CCCN=C(N)N)NC(=O)[C@H](Cc1c[nH]c2ccccc12)NC(=O)[C@H](CCCCN)NC(=O)[C@@H](N)CCCCN)C(N)=O` [KKWRKLLKKLKKLL] gave an MIC (Staphylococcus aureus) of 1.1 µM (≈ 2 µg/mL), an MIC (Acinetobacter baumannii) of 0.548 µM (≈ 0.999 µg/mL) and an MIC (Pseudomonas aeruginosa 1) of 1.55 µM (≈ 2.83 µg/mL). It also gave an MIC (Enterococcus faecalis) of 0.658 µM (≈ 1.2 µg/mL) and an MIC (Pseudomonas aeruginosa) of 0.548 µM (≈ 0.999 µg/mL).
`CC[C@H](C)[C@H](NC(=O)[C@H](C)NC(=O)[C@H](CC(N)=O)NC(=O)[C@H](CCCCN)NC(=O)[C@@H](NC(=O)CNC(=O)[C@H](CCC(=O)O)NC(=O)[C@H](Cc1c[nH]c2ccccc12)NC(=O)[C@H](CC(C)C)NC(=O)[C@H](CCCCN)NC(=O)CNC(=O)[C@H](Cc1c[nH]c2ccccc12)NC(=O)[C@H](Cc1ccccc1)NC(=O)CN)C(C)C)C(=O)N[C@@H](CCCCN)C(=O)N[C@@H](CCCCN)C(=O)N[C@@H](CCCCN)C(N)=O` [GFWGKLWEGVKNAIKKK] was tested, and the MIC [5] was 1 µM (≈ 1.99 µg/mL), the MIC [6] was 2 µM (≈ 3.98 µg/mL) and the MIC (Listeria grayi DSM 20601) was 1 µM (≈ 1.99 µg/mL). It also gave an MIC (Escherichia coli D31) of 4 µM (≈ 7.95 µg/mL) and an MIC [7] of 0.25 µM (≈ 0.497 µg/mL).
For `CC[C@H](C)[C@H](NC(=O)[C@H](CCC(N)=O)NC(=O)[C@@H](N)CCCN=C(N)N)C(=O)N[C@@H](CCCN=C(N)N)C(=O)N[C@@H](CCCN=C(N)N)C(=O)N[C@@H](Cc1c[nH]c2ccccc12)C(=O)N[C@@H](Cc1c[nH]c2ccccc12)C(=O)N[C@@H](CCC(N)=O)C(=O)N[C@@H](CCCN=C(N)N)C(N)=O` [RQIRRWWQR], the MIC [8] was 25 µM (≈ 34.6 µg/mL), the MIC [9] was 18.1 µM (≈ 25 µg/mL) and the MIC (Salmonella sp.) was 18.1 µM (≈ 25 µg/mL). It also gave an MIC (Yersinia enterocolitica) of 18.1 µM (≈ 25 µg/mL), an MIC [10] of 18.1 µM (≈ 25 µg/mL) and an MIC (Escherichia coli) of 9.03 µM (≈ 12.5 µg/mL). The MIC [11] was 18.1 µM (≈ 25 µg/mL), the MIC [12] was 10 µM (≈ 13.8 µg/mL) and the MIC [13] was > 50 µM. The MIC [14] was 36.1 µM (≈ 50 µg/mL).
